Laboratory results reported in patent publication US8980614B2, “Staphylococcus haemolyticus prophage φSH2 endolysin is lytic for Staphylococcus aureus” (The United States of America, as represented by The …, priority 2012, dated 2015).

B1: B1: Fusion of intact φSH2 CHAP and SH3b domains (1-166 + 341-493), SEQ ID NO:12 (protein)
chain: MKTQAEINKRLDAYRKGTVDSPYRVKVWTSYDNRFYPMEPGCIDVDKSFHAQCADLTIDYILWLTDNEFRIRGNAKDAINPKKNKLPEGWKIVLNRPSTVPRKGWIAVFTDGTYWEYGHIGMVYDGGNTSRFQILEQNWNGWANKKPSLRWDNYYGLTHFIVPPVALEVLHTGLDPLYHSITEHARLKLKDYFIKQIRAYMDGKKPTSKVVVSKPGSASTPATRKDANGYRENPHGTLYKEEHATFTANANIITRYVGPFTNMPQAGILKAGQTIIYDEVMKQDGYIWVGYTAYNGKRVYLPVRKWNRETDSVGKLWGVISLEHHHHHH
modifications: Bacteriophage Phi SH2
B2: D1: Isolated amidase domain (178-397), SEQ ID NO:20 (protein)
chain: MQAPKQKVKKASTKKALPKITKHITGYNMDKRGYNPKGVVLHNDAGGMNYKQYYNNLVNANYDRLARGIAHAYVDRTGIWEAIDESRIAWHVADGTRPGSGNHDFYGIEVNQSLRASDKEFLENEQAVFQFAAEKLKKWGLPANRNTVRLHNEFSQTSCPHRSMVLHTGLDPLYHSITEHARLKLKDYFIKQIRAYMDGKKPTSKVVVSKPGSASTPATRKLEHHHHHH
modifications: Bacteriophage Phi SH2
B3: E1: Amidase plus SH3b domain (178-493), SEQ ID NO:24 (protein)
chain: MQAPKQKVKKASTKKALPKITKHITGYNMDKRGYNPKGVVLHNDAGGMNYKQYYNNLVNANYDRLARGIAHAYVDRTGIWEAIDESRIAWHVADGTRPGSGNHDFYGIEVNQSLRASDKEFLENEQAVFQFAAEKLKKWGLPANRNTVRLHNEFSQTSCPHRSMVLHTGLDPLYHSITEHARLKLKDYFIKQIRAYMDGKKPTSKVVVSKPGSASTPATRKDANGYRENPHGTLYKEEHATFTANANIITRYVGPFTNMPQAGILKAGQTIIYDEVMKQDGYIWVGYTAYNGKRVYLPVRKWNRETDSVGKLWGVISLEHHHHHH
modifications: Bacteriophage Phi SH2
B4: C1: CHAP plus amidase domain, lacks SH3b (1-397), SEQ ID NO:16 (protein)
chain: MKTQAEINKRLDAYRKGTVDSPYRVKVWTSYDNRFYPMEPGCIDVDKSFHAQCADLTIDYILWLTDNEFRIRGNAKDAINPKKNKLPEGWKIVLNRPSTVPRKGWIAVFTDGTYWEYGHIGMVYDGGNTSRFQILEQNWNGWANKKPSLRWDNYYGLTHFIVPPVAKENKAVSSSKQQAPKQKVKKASTKKALPKITKHITGYNMDKRGYNPKGVVLHNDAGGMNYKQYYNNLVNANYDRLARGIAHAYVDRTGIWEAIDESRIAWHVADGTRPGSGNHDFYGIEVNQSLRASDKEFLENEQAVFQFAAEKLKKWGLPANRNTVRLHNEFSQTSCPHRSMVLHTGLDPLYHSITEHARLKLKDYFIKQIRAYMDGKKPTSKVVVSKPGSASTPATRKLEHHHHHH
modifications: Bacteriophage Phi SH2

Tests used:
MRSA strain NRS382 = assay: Control of systemic MRSA infection in a murine model; format: in vivo, Balb/c mice
S. aureus Newman cells [1] = assay: Zymogram with S. aureus Newman cells embedded in the gel; format: cell-based; conditions: 5 μg protein
Method: All purified proteins were analyzed with 15% SDS-PAGE, using a Kaleidoscope Precision Plus Protein Standard (BioRad, Hercules, Calif.). For zymograms, a 300 mL culture volume equivalent of live mid-log phase (OD600nm=0.4-0.6) cells of S. aureus strain Newman was embedded in the gel during polymerization. The protein samples were boiled in Laemmli sample buffer (BioRad) with β-mercaptoethanol, and electrophoresed with identical buffers and voltage for one hour in both the SDS-PAGE and the zymogram using a Mini-Protean TETRA gel system (BioRad). SDS gels were Coomassie stained and zymograms were washed in excess water and further incubated in deionized water for 60 min, followed by incubation in 10 mM Tris, pH 8.0 with 150 mM or 300 mM NaCl for 80 min. Areas of clearing in the turbid zymogram gel indicate a lytic protein in the gel.

S. aureus Newman cells [2] = assay: Turbidity reduction assay; format: cell-based, Staphylococcus aureus; conditions: 1 μM protein; for lytic activity in turbidity reduction assays (in words): different NaCl concentrations; for lytic (specific) activity compared with the full length φSH2 lysin: at optimum salt concentration
Method: The turbidity reduction assay measures a decrease in optical density of a bacterial suspension due to lysis of the target bacteria by a lytic protein. The assays were performed in a 96-well dish format essentially as described previously (Donovan et al. 2006, supra). In order to reduce the variability of the assay, frozen stocks of S. aureus Newman substrate cells were prepared in a large batch as described by Becker et al. (2009b, supra). Immediately prior to the assay, the frozen cells were thawed, washed, and resuspended in the desired assay buffer such that when 100 μl of cell suspension were added to 100 μl of lysis buffer+/−protein, the final suspension has an OD600nm of ˜1.0.
Protein constructs were assayed at a concentration of 1 μM, and the assay was performed at room temperature, measuring the OD600nm at 1 min intervals for 45 min. Buffer without enzyme served as the control. The steepest slopes of the resulting lysis curves, which correspond to the lytic activities of the proteins, were determined by a sliding window over each group of three consecutive time points for the entire 45 min period. Specific activities were expressed as ΔOD600nm/min/μM, and the “no enzyme” control value was subtracted from each experimental value.
In order to determine the effect of salt concentration on lytic activity, turbidity reduction assays were performed in 10 mM Tris buffers at pH 7.5 with varying NaCl concentrations between 0 mM and 600 mM. Accordingly, the influence of pH was determined by using a series of different buffers with pH values ranging from 3.5 to 10.0. Citrate buffers were used for pH 3.5, 4.5, 5.5, and 6.0, MOPS buffers for pH 6.5, 7.0, and 7.5, Tris buffers for pH 8.0 and 9.0, and Carbonate/bicarbonate buffer for pH 10.0. The concentration of the buffer substance in all buffers used was 20 mM, and the NaCl concentration was 200 mM. To test the effect of bivalent metal ions, assays were performed in 10 mM Tris, 200 mM NaCl, pH 7.5 supplemented with MgCl2, MnCl2, or CaCl2 at different concentrations (0.1 mM, 1 mM, 10 mM), buffer without metal ions serving as control.

[3] = 0 hours, mice infected i.p. with MRSA NRS382, treated 30 min post infection (φSH2 200 μg/mouse i.p.; Vancomycin 375 μg/mouse s.c.; Oxacillin 1250 μg/mouse s.c.)
[4] = 4 hours, same infection and treatment
[5] = 8 hours, same infection and treatment
[6] = 12 hours, same infection and treatment
[7] = 16 hours, same infection and treatment
[8] = 20 hours, same infection and treatment
[9] = 24 hours, same infection and treatment
[10] = 28 hours, same infection and treatment
[11] = 32 hours, same infection and treatment
[12] = 36 hours, same infection and treatment
[13] = 40 hours, same infection and treatment
[14] = 44 hours, same infection and treatment
[15] = after incubation in deionized water for 60 min
[16] = water 60 min, then 10 mM Tris, 150 mM NaCl, pH 8.0 up to 80 min

Molecule | % Survival (MRSA strain NRS382; [3]) | % Survival (MRSA strain NRS382; [4]) | % Survival (MRSA strain NRS382; [5]) | % Survival (MRSA strain NRS382; [6]) | % Survival (MRSA strain NRS382; [7]) | % Survival (MRSA strain NRS382; [8]) | % Survival (MRSA strain NRS382; [9]) | % Survival (MRSA strain NRS382; [10]) | % Survival (MRSA strain NRS382; [11]) | % Survival (MRSA strain NRS382; [12]) | % Survival (MRSA strain NRS382; [13]) | % Survival (MRSA strain NRS382; [14]) | lysis in zymogram (S. aureus Newman cells [1]; [15]) | lysis in zymogram (S. aureus Newman cells [1]; [16]) | lytic activity in turbidity reduction assays (in words) (S. aureus Newman cells [2]) | lytic (specific) activity compared with the full length φSH2 lysin (S. aureus Newman cells [2]) | further results
Cc1onc(-c2ccccc2)c1C(=O)N[C@@H]1C(=O)N2[C@@H]1SC(C)(C)[C@@H]2C(=O)O [Oxacillin] | 100% | 100% | 100% | 100% | 100% | 40% | 40% | 30% | 30% | 30% | 30% | 30% |  |  |  |  | survival rate (MRSA strain NRS382; after 16 to 20 hours, Oxacillin 1250 μg/mouse s.c. 30 min post infection): less than 40%
CN[C@H](CC(C)C)C(=O)N[C@H]1C(=O)N[C@@H](CC(N)=O)C(=O)N[C@H]2C(=O)N[C@H]3C(=O)N[C@H](C(=O)N[C@H](C(=O)O)c4cc(O)cc(O)c4-c4cc3ccc4O)[C@H](O)c3ccc(c(Cl)c3)Oc3cc2cc(c3O[C@@H]2O[C@H](CO)[C@@H](O)[C@H](O)[C@H]2O[C@H]2C[C@](C)(N)[C@H](O)[C@H](C)O2)Oc2ccc(cc2Cl)[C@H]1O [Vancomycin] | 100% | 100% | 100% | 100% | 100% | 100% | 100% | 100% | 100% | 100% | 100% | 100% |  |  |  |  | % Survival (MRSA strain NRS382; 48 hours (end of the experiment), same infection and treatment): 100%
B1 |  |  |  |  |  |  |  |  |  |  |  |  | faint zones of lysis | considerably weaker | completely abolished its activity |  | 
B2 |  |  |  |  |  |  |  |  |  |  |  |  |  |  | only background levels of activity |  | lysis in zymogram (S. aureus Newman cells [1]; water 60 min, then 10 mM Tris, 300 mM NaCl, pH 8.0 for 80 min): pronounced lytic band
B3 |  |  |  |  |  |  |  |  |  |  |  |  |  | only very faint lysis |  | about half the activity | 
B4 |  |  |  |  |  |  |  |  |  |  |  |  | faint zones of lysis | considerably weaker | drastically reduced activity | about half the activity | 
